# Experimental data published in paper PMC10804407, “Rombocin, a Short Stable Natural Nisin Variant, Displays Selective Antimicrobial Activity against Listeria monocytogenes and Employs a Dual Mode of Action to Kill Target Bacterial Strains” (ACS Synthetic Biology, 2024).
# What was measured:
# L. lactis MG1363 = type: cell-based, Lactococcus lactis; conditions: MG1363
# Procedure: (§1) Each experiment was performed in triplicate.
# Bacillus cereus CH-85 = type: cell-based; conditions: CH-85
# Procedure: as §1
# S. aureus LMG10147 = type: cell-based, Staphylococcus aureus; conditions: LMG10147
# Procedure: as §1
# [1] = tested on: S. aureus LMG15975 (MRSA); type: cell-based, Staphylococcus aureus; conditions: LMG15975
# Procedure: as §1
# E. faecium LMG11423 = type: cell-based, Enterococcus faecium; conditions: LMG11423
# Procedure: as §1
# [2] = tested on: E. faecium LMG16003 (VRE); type: cell-based, Enterococcus faecium; conditions: LMG16003
# Procedure: as §1
# [3] = Spot-on-lawn assay, peptide-LTA complex formation; type: binding, Lactococcus lactis; conditions: spot-on-lawn (LTA 1 mg/mL, 2 μL) and growth curves, L. lactis MG1363
# Procedure: To evaluate the binding of peptide and lipid II or lipoteichoic acid (LTA), an overnight cultured L. lactis MG1363 was added to 0.8% GM17 (w/v, temperature 45 °C) at a final concentration of 0.1% (v/v), and then, the mixture was poured onto 10 mL plates. The binding of peptide and lipid II or LTA was further evaluated by spotting of purified lipid II (300 μM, 2 μL) or LTA (1 mg/mL, 2 μL) to the edge of the inhibition halo of antibiotics. Briefly, antimicrobials were loaded to the agar plate. After the antimicrobial solution drops had dried, lipid II or LTA was spotted to the edge of inhibition halo of antimicrobials. The plates were then incubated overnight at 30 °C after the drops had dried.
# L. lactis [4] = assay: Potassium ion efflux assay (PBFI probe); type: cell-based, Lactococcus lactis; conditions: 5× MIC, 10 mM HEPES pH 7.2 with 0.5% glucose, 10 μM PBFI
# Procedure: To perform the K^+ release assay, we used the K^+-specific fluorescent probe PBFI. L. lactis was cultured in GM17 until the OD600 reached 0.6, after which the cells were harvested (5000g, 5 min) and washed twice with 10 mM HEPES (pH 7.2) with 0.5% glucose. The cells were then resuspended in the same buffer containing 10 μM PBFI. Data were analyzed using a Varioskan LUX Multimode Microplate Reader; cells were excited at 346 nm, and the fluorescence emission was measured at 505 nm to establish a baseline signal before the addition of 5-fold MIC antibiotics, after which data were collected. Nisin was used as a positive control.
# L. lactis [5] = assay: Membrane potential determination (DiSC3(5) probe); type: cell-based, Lactococcus lactis; conditions: 5× MIC, 10 mM HEPES with 10 mM glucose pH 7.2, 2 μM DiSC3(5), 25 min
# Procedure: To measure the membrane potential, the membrane potential-sensitive fluorescent dye DiSC3(5) was utilized. L. lactis was cultured to an OD600 of 0.8, pelleted at 5000g for 5 min, and washed twice in 10 mM HEPES with 10 mM glucose (pH 7.2). The cell density was adjusted to an OD600 of 0.2 and loaded with 2 μM DiSC3(5) dye, followed by 20 min of incubation in the dark to stabilize the probe fluorescence. Next, the cell suspension was added to a 96-well microplate and incubated for 5 min with 100 mM KCl. […] The fluorescence spectrometer’s excitation and emission wavelengths were adjusted to 622 and 670 nm, respectively. Three technical replicates were performed, and the representative example is shown.
structure (smiles),measurement,setting,value
C=C1NC(=O)[C@H]([C@@H](C)CC)NC(=O)C(NC(=O)C(=CC)NC(=O)[C@@H](N)[C@@H](C)CC)CSC[C@@H](C(=O)NC2C(=O)N[C@@H](C)C(=O)NCC(=O)N[C@H](C(=O)N[C@H](C(=O)NC3C(=O)NCC(=O)N[C@@H](C(C)C)C(=O)N[C@@H]([C@@H](C)CC)C(=O)N[C@@H](CCSC)C(=O)NC(=CC)C(=O)N[C@H](C(=O)N[C@@H](CCSC)C(=O)NC4CSC[C@@H](C(=O)N[C@@H](CCCCN)C(=O)O)NC(=O)CNC(=O)[C@H](CC(N)=O)NC4=O)CSC3C)[C@@H](C)CC)CSC2C)NC(=O)[C@H](CC(C)C)NC1=O (stereo partly drawn) [rombocin A],MIC,L. lactis MG1363,"0,78 μg/mL"
same,MIC,Bacillus cereus CH-85,25 mg/L
same,MIC,S. aureus LMG10147,100 mg/L
same,MIC,[1],100 mg/L
same,MIC,E. faecium LMG11423,100 mg/L
same,MIC,[2],100 mg/L
same,binding to lipoteichoic acid (LTA),[3],utilizes electrostatic interactions to interact with the cell walls of target bacteria
same,release of intracellular potassium ions (PBFI fluorescence),L. lactis [4],did not have this effect
same,membrane depolarization (DiSC3(5) fluorescence),L. lactis [5],significant membrane depolarization
